For one compound, Relative fluorescence intensity results are on record in patent publication US20190018003A1, “TUMOR DISCRIMINATION METHOD, DIAGNOSTIC AGENT FOR TUMOR, AND SENSITIZER FOR TUMOR DIAGNOSIS” (TOTO LTD., priority 2017, published 2019).

The subject of assay [1] is T24 urinary bladder cancer cells. The experiment in a line: Fluorescence enhancement in T24 cells by separate administration of fluorescent dye (ALA) and particles, inverted fluorescence microscope. The format is cell-based, human. On the procedure: T24 cells (T24, JCRB0711) were prepared. This cell line was subcultured in an MEM medium (MEM, GlutaMAX™ supplement (Thermo Fisher Scientific), 10 v/v % FBS (Thermo Fischer Scientific)). The cultured cells which reached a logarithmic growth phase 3 days or 4 days later were peeled off with Trypsin/EDTA (Thermo Fisher Scientific) and, after the reaction was terminated in an MEM medium, centrifuged. The cell pellet obtained was suspended in an MEM medium. The cell suspension was subjected to measurement of cell density, inoculated onto a 6-well plate at a density of 3.6×10^4 cells/2 ml/well, and cultured for 3 days.
An aqueous ALA solution (50 mmol/l) was mixed into an MEM medium (MEM, GlutaMAX™ supplement (Thermo Fisher Scientific)) to form a 2 mmol/l ALA solution. Further, an aqueous solution of light scattering particles (2) (ii) was mixed into an MEM medium to form a 0.001 w/v % light scattering particle solution.
Evaluation was performed as follows. The medium of the T24 cells on a 6-well plate, obtained in Example 3, was removed by an aspirator, and thereto was added 2 ml of PBS (−) (Thermo Fisher Scientific). Once again, PBS (−) was removed by an aspirator, thereto was added 2 ml of an ALA solution, and the system was cultured for 2 hours. Then, the ALA solution on the 6-well plate was removed by an aspirator, thereto was added 2 ml of a light scattering particle solution, and the system was cultured for 2 hours. Further, the particle solution on the 6-well plate was removed by an aspirator, the residue was washed with HBSS (−) (Thermo Fisher Scientific), HBSS (−) was removed gain by an aspirator, to the residue was added 2 ml of HBSS (−), and the solution was used for observation and detection of fluorescence.
Observation and detection of fluorescence was performed by using an inverted fluorescence microscope (ECLIPSE Ti-E, Nikon). By using a halogen light source lamp and a 450 nm dichroic mirror, excitation light was irradiated through a 410 nm band pass filter of a 25 nm half-band width, and fluorescence was passed through a 600 nm long-pass filter. There were used an eyepiece of 10 times magnification and an objective lens of 20 times magnification and numerical aperture of 0.75. The irradiation aperture, exposure time, and gain were set to ND=8, 400 ms, and 14.0×, respectively. Fluorescent images were acquired by a cooling CCD color camera (DS-Fi3, Nikon) as digital images. By using an image analysis device IS-Elements AR ver.4.60 (Nikon), fluorescence was detected by subtracting luminance corresponding to dark noise from the image acquired, thereafter obtaining average luminance of all pixels where fluorescence is acquired, and calculating a fluorescence intensity. Also, the image acquired was observed visually.
Relative fluorescence intensity was calculated by using the fluorescence intensities acquired above according to the following formula:
[relative fluorescence intensity]=[fluorescence intensity under each condition]/[fluorescence intensity immediately after irradiation of observation light in the case of administration of fluorescent dye only]. […]
An aqueous ALA solution (50 mmol/l) was mixed into an MEM medium (MEM, GlutaMAX™ supplement (Thermo Fisher Scientific)) to form a 2 mmol/l ALA solution. An aqueous solution of silica particles having a particle size of 100 nm (sicastar, Silica Microsphere, Plain, 25 mg/ml, produced by Polyscience) was mixed into the MEM medium to form a 0.01 w/v % silica particle solution.
Evaluation was performed by removing the medium of the T24 cells on a 6-well plate, obtained in Example 3, under conditions where, in Example 4, PBS (−) and HBSS (−) were respectively changed to MEM medium and MEM medium (no glutamine, no phenol red (Thermo Fisher Scientific)), and the solution was used for detection of fluorescence. […]

Assay [2] relates to DLD-1 colon cancer cells. The assay is described as follows: Fluorescence enhancement in DLD-1 cells by separate administration of fluorescent dye (ALA) and particles, fluorescence microscope. The format is cell-based, human. As to conditions: Example 6, ALA 2 mmol/l, particles 0.001 w/v %, immediately after observation light irradiation. On the procedure: DLD-1 cells (DLD-1, JCRB9094) were prepared. This cell line was subcultured in an RPMI-1640 medium (RPMI-1640 medium (Life Technologies), 10 v/v % FBS (Life Technologies)). The cultured cells which reached a logarithmic growth phase 3 days or 4 days later were peeled off with Trypsin/EDTA (Thermo Fisher Scientific) and, after the reaction was terminated in an RPMI-1640 medium, centrifuged. The cell pellet obtained was suspended in an RPMI-1640 medium. The cell suspension was subjected to measurement of cell density, inoculated onto a 6-well plate at a density of 2.9×10^5 cells/2 ml/well, and cultured for 1 day.
An aqueous ALA solution (50 mmol/l) was mixed into an RPMI-1640 medium (Life Technologies) to form a 2 mmol/l ALA solution. […]
Evaluation was performed as follows. The medium of the DLD-1 cells on a 6-well plate, obtained in Example 3, was removed by an aspirator, and evaluation thereof was performed under conditions where PBS (−) and HBSS (−) in Example 4 were changed to RPMI-1640 medium and RPMI-1640 medium (no glutamine and no phenol red (Thermo Fisher Scientific), respectively, and the solution was used for detection of fluorescence.
Detection of fluorescence was performed in the same manner as in Example 5 by using an inverted fluorescence microscope and, from the acquired images, fluorescence intensities were obtained and relative fluorescence intensities were calculated.

For the compound `NCC(=O)CCC(=O)O` [fluorescent dye, 5-aminolevulinic acid], the Relative fluorescence intensity in assay [1] (Example 4, T24, ALA 2 mmol/l 2 h, then particles 0.001 w/v % 2 h, 50 seconds after observation light irradiation) came to 0.4; in assay [1] (Example 4, T24, ALA 2 mmol/l 2 h, then particles 0.001 w/v % 2 h, 150 seconds after observation light irradiation), 0.1; in assay [1] (Example 4, T24, ALA 2 mmol/l 2 h, then particles 0.001 w/v % 2 h, immediately after observation light irradiation, relative to dye only immediately after irradiation) it was 1.0; in assay [1] (Example 7, T24, ALA 2 mmol/l, administration of fluorescent dye only), 1.0; in assay [1] (Example 10, T24 cell line, ALA 2 mmol/l, particles 0.001 w/v %), 1.0; in assay [1] (Example 12, T24, ALA 2 mmol/l, silica particles 0.01 w/v %, immediately after observation light irradiation), 1.0. Besides, the Relative fluorescence intensity amounted to 1.0 in assay [1] (Example 13, T24, ALA 2 mmol/l, polystyrene particles 0.01 w/v %, immediately after observation light irradiation); 1.0 in assay [1] (Example 14, T24, ALA 2 mmol/l, particles 0.001 w/v %, immediately after observation light irradiation); 1.0 in assay [1] (Example 15, T24, ALA 2 mmol/l, particles 0.001 w/v %, immediately after observation light irradiation); 1.0 in assay [2].
